# Data from ChEMBL document CHEMBL1139114, “Identification and structure-activity relationships of substituted pyridones as inhibitors of Pim-1 kinase” (Bioorg Med Chem Lett, 2007).
# Target: Serine/threonine-protein kinase pim-1 (Homo sapiens, UniProt P11309)
# Experiment: Inhibition of Pim1 kinase
# Serine/threonine-protein kinase pim-1, sequence (P11309 whole entry): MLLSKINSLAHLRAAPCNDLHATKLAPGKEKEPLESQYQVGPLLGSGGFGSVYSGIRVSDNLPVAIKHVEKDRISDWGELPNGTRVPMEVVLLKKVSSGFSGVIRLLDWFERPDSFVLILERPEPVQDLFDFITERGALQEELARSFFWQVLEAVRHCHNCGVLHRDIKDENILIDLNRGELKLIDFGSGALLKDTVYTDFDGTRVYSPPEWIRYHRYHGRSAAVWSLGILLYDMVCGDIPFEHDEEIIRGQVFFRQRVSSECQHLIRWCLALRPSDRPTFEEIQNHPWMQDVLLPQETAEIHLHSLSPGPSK
row,Compound,IC50 [µM]
1,N#Cc1c(-c2cccnc2)c2c([nH]c1=O)-c1ccccc1SC2,4.79
2,Nc1n[nH]c2nc(-c3cc(Br)ccc3O)cc(-c3ccccc3)c12,1.77
3,CCOC(=O)C1=C2C(=O)Oc3ccccc3C2N(C)C(=O)C1 (stereo not given),> 20
4,N#Cc1c(-c2ccc(Cl)cc2)c2c([nH]c1=O)-c1ccccc1OC2,0.92
5,N#Cc1c(-c2ccccc2Cl)c2c([nH]c1=O)-c1ccccc1SC2,20
6,N#Cc1c(-c2ccccc2Cl)c2c([nH]c1=O)-c1ccccc1OC2,1.23
7,COc1ccc(-c2cc(C(F)(F)F)c(C#N)c(=O)[nH]2)cc1Br,1.14
8,COc1ccc(-c2c3c([nH]c(=O)c2C#N)-c2ccccc2OC3)cc1,> 20
9,N#Cc1c(-c2ccncc2)c2c([nH]c1=O)-c1ccccc1OC2,20
10,N#Cc1c(-c2ccncc2)c2c([nH]c1=O)-c1ccccc1CC2,> 20
11,N#Cc1c(-c2ccc(F)cc2)c2c([nH]c1=O)-c1ccccc1SC2,> 20
12,N#Cc1c(-c2ccccn2)c2c([nH]c1=O)-c1ccccc1OC2,> 20
13,N#Cc1c(-c2ccccc2)cc(-c2ccc(O)cc2)nc1N,4.41

# More lines, now with the values ahead:
row,IC50 [µM],Compound
1,0.37,Cc1ccc(O)c(-c2cc(-c3ccccc3)[nH]c(=O)c2C#N)c1
2,0.34,Cc1ccc(O)c(-c2cc(-c3ccccc3)c(C#N)c(=O)[nH]2)c1
3,0.43,N#Cc1c(-c2ccc(O)cc2)cc(-c2ccccc2O)[nH]c1=O
4,1.03,CCc1ccc(O)c(-c2cc(-c3cccc(Cl)c3)c(C#N)c(=O)[nH]2)c1

# Target: Serine/threonine-protein kinase pim-2 (Homo sapiens, UniProt Q9P1W9)
# Sequence (Q9P1W9 whole entry): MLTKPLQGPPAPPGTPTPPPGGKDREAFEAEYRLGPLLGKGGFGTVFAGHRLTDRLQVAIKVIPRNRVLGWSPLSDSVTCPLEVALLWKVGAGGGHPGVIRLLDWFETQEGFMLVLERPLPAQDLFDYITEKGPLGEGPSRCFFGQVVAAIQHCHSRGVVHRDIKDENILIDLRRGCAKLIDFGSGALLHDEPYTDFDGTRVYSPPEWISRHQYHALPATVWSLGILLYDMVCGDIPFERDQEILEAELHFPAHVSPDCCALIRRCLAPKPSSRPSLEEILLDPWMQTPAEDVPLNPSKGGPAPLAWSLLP
# Experiment: Inhibition of Pim2 kinase
row,IC50 [µM],Compound
1,> 20,N#Cc1c(-c2ccccc2)cc(-c2cc(Br)ccc2O)[nH]c1=O

# Target: Dual specificity mitogen-activated protein kinase kinase 2 (Homo sapiens, UniProt P36507)
# Sequence (P36507 whole entry): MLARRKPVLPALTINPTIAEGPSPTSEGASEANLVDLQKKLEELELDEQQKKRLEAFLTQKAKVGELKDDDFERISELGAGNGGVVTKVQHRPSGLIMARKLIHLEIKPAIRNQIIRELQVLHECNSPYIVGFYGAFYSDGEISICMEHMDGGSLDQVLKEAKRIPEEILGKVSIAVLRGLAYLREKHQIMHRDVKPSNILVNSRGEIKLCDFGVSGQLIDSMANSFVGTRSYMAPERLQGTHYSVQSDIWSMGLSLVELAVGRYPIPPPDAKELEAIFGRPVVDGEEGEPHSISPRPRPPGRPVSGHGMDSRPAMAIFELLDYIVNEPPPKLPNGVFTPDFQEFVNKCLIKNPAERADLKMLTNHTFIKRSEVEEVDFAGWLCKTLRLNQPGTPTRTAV
# Experiment: Inhibition of MEK2 kinase
row,IC50 [µM],Compound
1,> 20,N#Cc1c(-c2ccccc2)cc(-c2cc(Br)ccc2O)[nH]c1=O

# Target: Dual specificity mitogen-activated protein kinase kinase 1 (Homo sapiens, UniProt Q02750)
# Sequence (Q02750 whole entry): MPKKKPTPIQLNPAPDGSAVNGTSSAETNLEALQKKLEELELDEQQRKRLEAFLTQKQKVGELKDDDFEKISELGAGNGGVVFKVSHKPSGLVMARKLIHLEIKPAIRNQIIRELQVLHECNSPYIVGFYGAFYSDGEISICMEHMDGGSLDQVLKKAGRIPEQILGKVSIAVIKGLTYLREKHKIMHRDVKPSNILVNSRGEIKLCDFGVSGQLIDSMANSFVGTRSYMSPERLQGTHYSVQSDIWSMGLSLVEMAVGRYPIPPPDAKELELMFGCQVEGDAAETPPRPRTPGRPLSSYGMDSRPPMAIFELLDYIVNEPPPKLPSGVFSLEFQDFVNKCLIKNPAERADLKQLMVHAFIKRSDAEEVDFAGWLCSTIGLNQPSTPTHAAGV
# Experiment: Inhibition of MEK1 kinase
row,IC50 [µM],Compound
1,> 20,N#Cc1c(-c2ccccc2)cc(-c2cc(Br)ccc2O)[nH]c1=O
